# From patent US10183949B2, “Pyrimidinone derivative having autotaxin-inhibitory activity” (The University of Tokyo, priority 2014, dated 2019)
# Biological target: T1, Human autotaxin enzyme (Homo sapiens, UniProt Q13822)
# T1 construct: purchased R&D System
# Test: Evaluation of autotaxin inhibitor, 18:0 Lyso PC / choline assay (Test Example 2)
# Format: biochemical
# Settings: human autotaxin enzyme, 18:0 Lyso PC substrate, choline assay, room temperature 2 hours; read-out: Inhibitor activity (IC50)
# Method: Solution B containing 100 mM Tris-HCl buffer (pH7.5), 150 mM NaCl, 5 mM MgCl2, and 0.05% Triton X-100 was prepared. Human autotaxin enzyme (purchased from R&D System) was diluted with Solution B, and 2.5 μl of which was added to a solution of test compound in DMSO. Furthermore, 2.5 μl of 200 μM 18:0 Lyso PC (purchased from Avanti Polar Lipids) in Solution B was added and allowed to react at room temperature for 2 hours. After completion of the reaction, 15 μl of the coline assay reagent. (100 mM Tris-HCl buffer (pH7.5), 5 mM. MgCl2, 77 μg/ml coline oxidase, 10 μg/ml peroxydase, 25μM 10-acetyl-3,7-dihydroxyphenoxazine, and excess autotaxin inhibitor) was added and allowed to react at room temperature for 20 minutes. The fluorescent dye Resorufin, which was produced by the reaction, was detected. The fluorescence was detected using ViewLux
# (PerkinElmer, Inc.) with a excitation wavelength of 531 nm and a fluorescence wavelength of 598 nm.
# The percent inhibition of the test compound was calculated by assuming the sample with no test compound as 0% inhibition and the sample with no enzyme as 100% inhibition, and the percent inhibitions at different concentrations of the test compound were plotted to obtain a concentration-dependent curve.
row,IC50 [µM],SMILES
1,0.1 to 1,CNC(=O)CN1CCC(NC(=O)Cn2c(CCCC(F)(F)F)nc(-c3ccc(Cl)cc3)cc2=O)CC1 [Compound I-0129]
2,0.01 to 0.1,O=C(Cn1c(CCCC(F)(F)F)nc(-c2ccc(Cl)cc2)cc1=O)N1CCC(O)(CO)CC1 [Compound I-0130]
3,0.01 to 0.1,O=C(Cn1c(CCCC(F)(F)F)nc(-c2ccc(Cl)cc2)cc1=O)N1CCN(CCO)CC1 [Compound I-0131]
4,0.1 to 1,CN(CC(O)CO)C(=O)Cn1c(CCCC(F)(F)F)nc(-c2ccc(Cl)cc2)cc1=O (stereo not shown) [Compound I-0132]
5,0.01 to 0.1,NS(=O)(=O)CCNC(=O)Cn1c(CCCC(F)(F)F)nc(-c2ccc(Cl)cc2)cc1=O [Compound I-0133]
6,< 0.01,CC(C)(O)CNC(=O)Cn1c(CCCC(F)(F)F)nc(-c2ccc(Cl)cc2)cc1=O [Compound I-0134]
7,0.01 to 0.1,O=C(Cn1c(CCCC(F)(F)F)nc(-c2ccc(Cl)cc2)cc1=O)NC(CO)(CO)CO [Compound I-0135]
8,0.1 to 1,N#CCCN1CCN(C(=O)Cn2c(CCCC(F)(F)F)nc(-c3ccc(Cl)cc3)cc2=O)CC1 [Compound I-0136]
9,0.01 to 0.1,N#CCCNC(=O)Cn1c(CCCC(F)(F)F)nc(-c2ccc(Cl)cc2)cc1=O [Compound I-0137]
10,< 0.01,O=C(Cn1c(CCCC(F)(F)F)nc(-c2ccc(Cl)cc2)cc1=O)NCCCS(=O)(=O)O [Compound I-0138]
11,0.01 to 0.1,O=C(Cn1c(CCCC(F)(F)F)nc(-c2ccc(Cl)cc2)cc1=O)N1CCOC(CO)C1 (stereo not shown) [Compound I-0139]
12,0.1 to 1,O=C(Cn1c(CCCC(F)(F)F)nc(-c2ccc(Cl)cc2)cc1=O)NCCOCCOCCO [Compound I-0140]
13,0.01 to 0.1,Cc1noc(CNC(=O)Cn2c(CCCC(F)(F)F)nc(-c3ccc(Cl)cc3)cc2=O)n1 [Compound I-0141]
14,0.1 to 1,O=C(Cn1c(CCCC(F)(F)F)nc(-c2ccc(Cl)cc2)cc1=O)NCc1ccnc(O)c1 [Compound I-0142]
15,0.01 to 0.1,O=C(Cn1c(CCCC(F)(F)F)nc(-c2ccc(Cl)cc2)cc1=O)NC1CCS(=O)(=O)C1 (stereo not shown) [Compound I-0143]
16,0.01 to 0.1,CCC(CO)(CO)NC(=O)Cn1c(CCCC(F)(F)F)nc(-c2ccc(Cl)cc2)cc1=O [Compound I-0144]
17,0.01 to 0.1,CCNS(=O)(=O)CCNC(=O)Cn1c(CCCC(F)(F)F)nc(-c2ccc(Cl)cc2)cc1=O [Compound I-0145]
18,0.1 to 1,O=C(Cn1c(CCCC(F)(F)F)nc(-c2ccc(Cl)cc2)cc1=O)NCCN(CCO)CCO [Compound I-0146]
19,0.01 to 0.1,O=C(Cn1c(CCCC(F)(F)F)nc(-c2ccc(Cl)cc2)cc1=O)NCC1(CO)COC1 [Compound I-0147]
20,0.1 to 1,CC(C)(O)CN1CCN(C(=O)Cn2c(CCCC(F)(F)F)nc(-c3ccc(Cl)cc3)cc2=O)CC1 [Compound I-0148]
21,≥ 1,O=C(Cn1c(=O)cc(-c2ccc(Cl)cc2)[nH]c1=O)NC(Cc1ccccc1)C(=O)O (stereo not shown) [Compound I-0150]
22,0.1 to 1,CCCCCn1c(-c2ccc(Cl)cc2)cc(=O)n(CC(=O)NC(Cc2ccccc2)C(=O)O)c1=O (stereo not shown) [Compound I-0151]

row,IC50 [µM],SMILES
1,0.01 to 0.1,CCCCCOc1nc(-c2ccc(Cl)cc2)cc(=O)n1CC(=O)NC(Cc1ccccc1)C(=O)O (stereo not shown) [Compound I-0152]
2,0.01 to 0.1,O=C(c1cccc(Cn2c(CCCC(F)(F)F)nc(-c3ccc(Cl)cc3)cc2=O)c1)N1CCSCC1 [Compound I-0153]
3,0.01 to 0.1,O=C(NCCS(=O)(=O)O)c1cccc(Cn2c(CCCC(F)(F)F)nc(-c3ccc(Cl)cc3)cc2=O)c1 [Compound I-0154]
4,0.1 to 1,CN(CC#N)C(=O)c1cccc(Cn2c(CCCC(F)(F)F)nc(-c3ccc(Cl)cc3)cc2=O)c1 [Compound I-0155]
5,0.1 to 1,CC(=O)NCCNC(=O)c1cccc(Cn2c(CCCC(F)(F)F)nc(-c3ccc(Cl)cc3)cc2=O)c1 [Compound I-0156]
6,0.01 to 0.1,CN(CCC#N)C(=O)c1cccc(Cn2c(CCCC(F)(F)F)nc(-c3ccc(Cl)cc3)cc2=O)c1 [Compound I-0157]
7,0.01 to 0.1,O=C(c1cccc(Cn2c(CCCC(F)(F)F)nc(-c3ccc(Cl)cc3)cc2=O)c1)N1CCC(O)CC1 [Compound I-0158]
8,< 0.01,O=C(c1cccc(Cn2c(CCCC(F)(F)F)nc(-c3ccc(Cl)cc3)cc2=O)c1)N1CCC(CO)CC1 [Compound I-0159]
9,0.01 to 0.1,O=C(c1cccc(Cn2c(CCCC(F)(F)F)nc(-c3ccc(Cl)cc3)cc2=O)c1)N1CCOCC1 [Compound I-0160]
10,0.1 to 1,COCCCNC(=O)c1cccc(Cn2c(CCCC(F)(F)F)nc(-c3ccc(Cl)cc3)cc2=O)c1 [Compound I-0161]
11,0.1 to 1,O=C(NCCOCCO)c1cccc(Cn2c(CCCC(F)(F)F)nc(-c3ccc(Cl)cc3)cc2=O)c1 [Compound I-0162]
12,0.1 to 1,O=C(NCCCO)c1cccc(Cn2c(CCCC(F)(F)F)nc(-c3ccc(Cl)cc3)cc2=O)c1 [Compound I-0163]
13,0.1 to 1,N#CCNC(=O)c1cccc(Cn2c(CCCC(F)(F)F)nc(-c3ccc(Cl)cc3)cc2=O)c1 [Compound I-0164]
14,0.1 to 1,O=C(NC(CO)CO)c1cccc(Cn2c(CCCC(F)(F)F)nc(-c3ccc(Cl)cc3)cc2=O)c1 [Compound I-0165]
15,0.1 to 1,C[C@@H]1CN(C(=O)c2cccc(Cn3c(CCCC(F)(F)F)nc(-c4ccc(Cl)cc4)cc3=O)c2)C[C@H](C)O1 [Compound I-0166]
16,0.1 to 1,O=C(NCC(O)c1ccccc1)c1cccc(Cn2c(CCCC(F)(F)F)nc(-c3ccc(Cl)cc3)cc2=O)c1 (stereo not shown) [Compound I-0167]
17,0.1 to 1,NC(=O)CNC(=O)c1cccc(Cn2c(CCCC(F)(F)F)nc(-c3ccc(Cl)cc3)cc2=O)c1 [Compound I-0168]
18,0.1 to 1,O=C(NCc1cnccn1)c1cccc(Cn2c(CCCC(F)(F)F)nc(-c3ccc(Cl)cc3)cc2=O)c1 [Compound I-0169]
19,0.01 to 0.1,O=C(NCc1cc(=O)[nH]o1)c1cccc(Cn2c(CCCC(F)(F)F)nc(-c3ccc(Cl)cc3)cc2=O)c1 [Compound I-0170]
20,0.1 to 1,O=C(NCCN1CCNC1=O)c1cccc(Cn2c(CCCC(F)(F)F)nc(-c3ccc(Cl)cc3)cc2=O)c1 [Compound I-0171]
21,0.1 to 1,O=C(NCCO)c1cccc(Cn2c(CCCC(F)(F)F)nc(-c3ccc(Cl)cc3)cc2=O)c1 [Compound I-0172]
22,0.1 to 1,O=C(NCC(O)CO)c1cccc(Cn2c(CCCC(F)(F)F)nc(-c3ccc(Cl)cc3)cc2=O)c1 (stereo not shown) [Compound I-0173]

row,IC50 [µM],SMILES
1,0.1 to 1,O=C(N[C@H]1CC[C@H](O)CC1)c1cccc(Cn2c(CCCC(F)(F)F)nc(-c3ccc(Cl)cc3)cc2=O)c1 [Compound I-0174]
2,0.1 to 1,O=C(NCC1(CO)CC1)c1cccc(Cn2c(CCCC(F)(F)F)nc(-c3ccc(Cl)cc3)cc2=O)c1 [Compound I-0175]
3,0.1 to 1,O=C(NCc1ccc(O)nc1)c1cccc(Cn2c(CCCC(F)(F)F)nc(-c3ccc(Cl)cc3)cc2=O)c1 [Compound I-0176]
4,0.1 to 1,CS(=O)(=O)CCNC(=O)c1cccc(Cn2c(CCCC(F)(F)F)nc(-c3ccc(Cl)cc3)cc2=O)c1 [Compound I-0177]
5,0.1 to 1,O=C(NC(CO)c1ccccc1)c1cccc(Cn2c(CCCC(F)(F)F)nc(-c3ccc(Cl)cc3)cc2=O)c1 (stereo not shown) [Compound I-0178]
6,0.01 to 0.1,O=C1CCN(C(=O)c2cccc(Cn3c(CCCC(F)(F)F)nc(-c4ccc(Cl)cc4)cc3=O)c2)CCN1 [Compound I-0179]
7,0.1 to 1,CNC(=O)c1cccc(Cn2c(CCCC(F)(F)F)nc(-c3ccc(Cl)cc3)cc2=O)c1 [Compound I-0180]
8,0.01 to 0.1,CN(C)C(=O)c1cccc(Cn2c(CCCC(F)(F)F)nc(-c3ccc(Cl)cc3)cc2=O)c1 [Compound I-0181]
9,0.1 to 1,CNC(=O)CNC(=O)c1cccc(Cn2c(CCCC(F)(F)F)nc(-c3ccc(Cl)cc3)cc2=O)c1 [Compound I-0182]
10,0.01 to 0.1,CN(C)C(=O)CNC(=O)c1cccc(Cn2c(CCCC(F)(F)F)nc(-c3ccc(Cl)cc3)cc2=O)c1 [Compound I-0183]
11,0.1 to 1,NC(=O)CCCNC(=O)c1cccc(Cn2c(CCCC(F)(F)F)nc(-c3ccc(Cl)cc3)cc2=O)c1 [Compound I-0184]
12,0.1 to 1,CC1(NC(=O)c2cccc(Cn3c(CCCC(F)(F)F)nc(-c4ccc(Cl)cc4)cc3=O)c2)COC1 [Compound I-0185]
13,0.1 to 1,NS(=O)(=O)CCNC(=O)c1cccc(Cn2c(CCCC(F)(F)F)nc(-c3ccc(Cl)cc3)cc2=O)c1 [Compound I-0186]
14,0.1 to 1,CC(C)(O)CNC(=O)c1cccc(Cn2c(CCCC(F)(F)F)nc(-c3ccc(Cl)cc3)cc2=O)c1 [Compound I-0187]
15,0.1 to 1,O=C(NC(CO)(CO)CO)c1cccc(Cn2c(CCCC(F)(F)F)nc(-c3ccc(Cl)cc3)cc2=O)c1 [Compound I-0188]
16,0.1 to 1,Cc1nc(CNC(=O)c2cccc(Cn3c(CCCC(F)(F)F)nc(-c4ccc(Cl)cc4)cc3=O)c2)no1 [Compound I-0189]
17,0.1 to 1,Cc1nonc1CNC(=O)c1cccc(Cn2c(CCCC(F)(F)F)nc(-c3ccc(Cl)cc3)cc2=O)c1 [Compound I-0190]
18,0.1 to 1,CN(CC(N)=O)C(=O)c1cccc(Cn2c(CCCC(F)(F)F)nc(-c3ccc(Cl)cc3)cc2=O)c1 [Compound I-0191]
19,0.01 to 0.1,O=C(NCc1ccnc(O)c1)c1cccc(Cn2c(CCCC(F)(F)F)nc(-c3ccc(Cl)cc3)cc2=O)c1 [Compound I-0192]
20,0.1 to 1,O=C(NCc1cccnc1O)c1cccc(Cn2c(CCCC(F)(F)F)nc(-c3ccc(Cl)cc3)cc2=O)c1 [Compound I-0193]
